# Measured values: ChEMBL document CHEMBL5113522, “Discovery of CH7057288 as an Orally Bioavailable, Selective, and Potent pan-TRK Inhibitor” (J Med Chem, 2022)
# What was measured:
# [1] = Antitumor activity against human CUTO-3 cells xenografted in mouse assessed as tumor growth inhibition at 10 mg/kg, po administered once daily for 11 days and measured on day 12 relative to control; type: functional; details: CUTO-3, 288 h, time 12 day, read-out: TGI
# [2] = target: Receptor tyrosine-protein kinase erbB-2 (Homo sapiens, UniProt P04626); assay: Inhibition of HER2 (unknown origin)
# [3] = target: BDNF/NT-3 growth factors receptor (Homo sapiens, UniProt Q16620); assay: Inhibition of TRKB (unknown origin)
# BDNF/NT-3 growth factors receptor, sequence (Q16620 whole entry): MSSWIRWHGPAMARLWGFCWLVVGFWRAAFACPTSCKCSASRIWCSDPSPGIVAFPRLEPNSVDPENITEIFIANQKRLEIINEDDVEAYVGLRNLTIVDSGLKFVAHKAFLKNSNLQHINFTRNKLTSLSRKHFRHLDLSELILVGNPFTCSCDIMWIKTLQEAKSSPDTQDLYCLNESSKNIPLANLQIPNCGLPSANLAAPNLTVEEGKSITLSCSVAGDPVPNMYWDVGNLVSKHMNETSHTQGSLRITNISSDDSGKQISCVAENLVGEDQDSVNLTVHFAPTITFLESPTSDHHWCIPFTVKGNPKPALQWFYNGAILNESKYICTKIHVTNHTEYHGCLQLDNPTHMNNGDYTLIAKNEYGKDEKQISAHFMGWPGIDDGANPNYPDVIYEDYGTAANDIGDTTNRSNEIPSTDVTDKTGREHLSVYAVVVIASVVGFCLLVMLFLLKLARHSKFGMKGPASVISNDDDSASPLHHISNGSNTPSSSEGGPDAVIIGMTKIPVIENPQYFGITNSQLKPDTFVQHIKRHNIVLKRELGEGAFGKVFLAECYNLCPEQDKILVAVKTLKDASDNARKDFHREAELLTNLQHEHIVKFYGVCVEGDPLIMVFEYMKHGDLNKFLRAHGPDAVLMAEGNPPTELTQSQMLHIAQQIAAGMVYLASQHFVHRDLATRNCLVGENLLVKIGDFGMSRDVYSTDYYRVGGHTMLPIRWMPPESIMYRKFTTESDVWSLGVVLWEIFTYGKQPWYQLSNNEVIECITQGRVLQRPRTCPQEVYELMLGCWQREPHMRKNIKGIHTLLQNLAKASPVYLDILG
# NIH3T3 [4] = assay: Antitumor activity against mouse NIH3T3 cells implanted in mouse assessed as tumor growth inhibition at 10 mg/kg, po administered once daily for 11 days and measured on day 12 relative to control; type: functional; details: NIH3T3, 288 h, time 12 day, read-out: TGI
# CYP3A4 = CYP3A4 (Homo sapiens, UniProt P08684); assay: Induction of CYP3A4 in human hepatocytes assessed as fold induction at 1 uM using testosterone as substrate preincubated with replacement of fresh medium containing compound every 24 hrs for 72 hrs followed by substrate addition and measured after 1 hr by LC-MS/MS analysis relative to control; type: ADME, cell-based, Hepatocyte; details: probe testosterone, time 73 hrs, read-out: FC
# [5] = Volume of distribution at steady state in Beagle dog at 1 mg/kg, iv by LC-MS analysis; type: ADME, organism-based, Canis lupus familiaris; details: in vivo, read-out: Vdss
# [6] = target: Proto-oncogene tyrosine-protein kinase Src (Homo sapiens, UniProt P12931); assay: Inhibition of Src (unknown origin)
# Proto-oncogene tyrosine-protein kinase Src, sequence (P12931 2-536 limits assumed): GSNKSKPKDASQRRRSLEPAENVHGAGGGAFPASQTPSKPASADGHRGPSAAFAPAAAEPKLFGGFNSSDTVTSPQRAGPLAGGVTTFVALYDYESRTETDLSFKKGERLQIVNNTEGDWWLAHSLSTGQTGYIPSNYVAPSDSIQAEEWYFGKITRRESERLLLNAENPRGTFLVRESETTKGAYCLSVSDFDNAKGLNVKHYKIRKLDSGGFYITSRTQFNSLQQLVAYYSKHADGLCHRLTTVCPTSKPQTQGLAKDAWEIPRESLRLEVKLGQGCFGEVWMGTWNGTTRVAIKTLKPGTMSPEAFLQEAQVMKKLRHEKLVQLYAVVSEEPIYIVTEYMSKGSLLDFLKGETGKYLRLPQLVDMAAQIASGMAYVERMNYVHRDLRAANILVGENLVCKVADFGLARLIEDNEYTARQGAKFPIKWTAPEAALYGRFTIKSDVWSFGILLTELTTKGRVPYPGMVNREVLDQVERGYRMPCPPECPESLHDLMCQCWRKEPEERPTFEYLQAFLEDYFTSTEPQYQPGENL
# [7] = Half life in Beagle dog at 1 mg/kg, iv by LC-MS analysis; type: ADME, organism-based, Canis lupus familiaris; details: in vivo
# Insulin receptor = Insulin receptor (Homo sapiens, UniProt P06213); assay: Inhibition of INSR (unknown origin)
# [8] = AUC in Wistar Hannover rat at 1 mg/kg, po by LC-MS analysis; type: ADME, organism-based; set-up: dose 1 mg/kg, route po; details: in vivo
# [9] = AUC in Beagle dog at 1 mg/kg, po by LC-MS analysis; type: ADME, organism-based, Canis lupus familiaris; set-up: dose 1 mg/kg, route po; details: in vivo
# [10] = Clearance in Wistar Hannover rat at 1 mg/kg, iv by LC-MS analysis; type: ADME, organism-based; details: in vivo
# [11] = target: RAC-alpha serine/threonine-protein kinase (Homo sapiens, UniProt P31749); assay: Inhibition of AKT1 (unknown origin)
# [12] = target: Tyrosine-protein kinase Lck (Homo sapiens, UniProt P06239); assay: Inhibition of LCK (unknown origin)
# [13] = Half life in Beagle dog at 1 mg/kg, po by LC-MS analysis; type: ADME, organism-based, Canis lupus familiaris; details: in vivo
# [14] = target: Protein kinase C alpha type (Homo sapiens, UniProt P17252); assay: Inhibition of PKCalpha (unknown origin)
# [15] = Volume of distribution at steady state in Wistar Hannover rat at 1 mg/kg, iv by LC-MS analysis; type: ADME, organism-based; details: in vivo, read-out: Vdss
# NIH3T3 [16] = assay: Antitumor activity against mouse NIH3T3 cells implanted in mouse assessed as tumor growth inhibition at 2.5 mg/kg, po administered once daily for 11 days and measured on day 12 relative to control; type: functional; details: NIH3T3, 288 h, time 12 day, read-out: TGI
# NIH3T3 [17] = assay: Antitumor activity against mouse NIH3T3 cells implanted in mouse assessed as tumor regression at 2.5 mg/kg, po administered once daily for 11 days and measured on day 12 relative to control; type: functional; details: time 12 day
# [18] = Oral bioavailability in Wistar Hannover rat at 1 mg/kg by LC-MS analysis; type: ADME, organism-based; details: in vivo
# [19] = Oral bioavailability in Beagle dog at 1 mg/kg by LC-MS analysis; type: ADME, organism-based, Canis lupus familiaris; details: in vivo
# [20] = Clearance in Beagle dog at 1 mg/kg, iv by LC-MS analysis; type: ADME, organism-based, Canis lupus familiaris; details: in vivo
# NIH3T3 [21] = assay: Antitumor activity against mouse NIH3T3 cells implanted in mouse assessed as tumor growth inhibition at 0.16 mg/kg, po administered once daily for 11 days and measured on day 12 relative to control; type: functional; details: NIH3T3, 288 h, time 12 day, read-out: TGI
# [22] = target: Tyrosine-protein kinase JAK2 (Homo sapiens, UniProt O60674); assay: Inhibition of JAK2 (unknown origin)
# Tyrosine-protein kinase JAK2, sequence (O60674 whole entry): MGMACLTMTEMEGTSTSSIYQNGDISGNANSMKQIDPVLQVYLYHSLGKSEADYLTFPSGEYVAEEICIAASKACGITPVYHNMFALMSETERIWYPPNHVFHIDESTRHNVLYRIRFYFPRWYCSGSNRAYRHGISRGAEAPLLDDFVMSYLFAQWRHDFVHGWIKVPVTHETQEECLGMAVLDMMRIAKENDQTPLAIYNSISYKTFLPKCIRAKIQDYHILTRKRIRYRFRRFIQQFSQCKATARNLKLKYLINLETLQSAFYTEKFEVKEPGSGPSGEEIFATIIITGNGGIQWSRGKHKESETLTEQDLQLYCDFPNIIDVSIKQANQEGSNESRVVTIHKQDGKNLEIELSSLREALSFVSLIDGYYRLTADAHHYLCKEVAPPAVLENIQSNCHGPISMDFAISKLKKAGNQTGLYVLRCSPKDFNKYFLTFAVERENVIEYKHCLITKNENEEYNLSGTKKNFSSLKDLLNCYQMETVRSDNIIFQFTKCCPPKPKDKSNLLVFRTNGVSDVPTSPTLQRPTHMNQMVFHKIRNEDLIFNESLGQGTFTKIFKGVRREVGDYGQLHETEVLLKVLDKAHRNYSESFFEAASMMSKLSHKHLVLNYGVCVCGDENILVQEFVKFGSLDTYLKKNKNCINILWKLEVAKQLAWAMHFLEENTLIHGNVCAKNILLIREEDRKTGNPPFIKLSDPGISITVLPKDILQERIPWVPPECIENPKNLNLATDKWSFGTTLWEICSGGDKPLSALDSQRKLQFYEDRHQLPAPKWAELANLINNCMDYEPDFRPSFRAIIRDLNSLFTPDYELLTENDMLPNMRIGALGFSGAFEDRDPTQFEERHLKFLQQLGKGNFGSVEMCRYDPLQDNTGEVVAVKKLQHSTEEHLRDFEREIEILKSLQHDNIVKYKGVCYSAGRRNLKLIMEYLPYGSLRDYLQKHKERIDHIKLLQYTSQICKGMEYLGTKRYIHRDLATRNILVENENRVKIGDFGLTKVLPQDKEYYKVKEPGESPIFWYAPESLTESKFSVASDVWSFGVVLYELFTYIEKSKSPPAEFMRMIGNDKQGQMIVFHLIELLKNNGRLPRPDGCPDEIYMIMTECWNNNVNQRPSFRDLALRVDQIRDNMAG
# [23] = target: ALK tyrosine kinase receptor (Homo sapiens, UniProt Q9UM73); assay: Inhibition of ALK (unknown origin)
# ALK tyrosine kinase receptor, sequence (Q9UM73 whole entry): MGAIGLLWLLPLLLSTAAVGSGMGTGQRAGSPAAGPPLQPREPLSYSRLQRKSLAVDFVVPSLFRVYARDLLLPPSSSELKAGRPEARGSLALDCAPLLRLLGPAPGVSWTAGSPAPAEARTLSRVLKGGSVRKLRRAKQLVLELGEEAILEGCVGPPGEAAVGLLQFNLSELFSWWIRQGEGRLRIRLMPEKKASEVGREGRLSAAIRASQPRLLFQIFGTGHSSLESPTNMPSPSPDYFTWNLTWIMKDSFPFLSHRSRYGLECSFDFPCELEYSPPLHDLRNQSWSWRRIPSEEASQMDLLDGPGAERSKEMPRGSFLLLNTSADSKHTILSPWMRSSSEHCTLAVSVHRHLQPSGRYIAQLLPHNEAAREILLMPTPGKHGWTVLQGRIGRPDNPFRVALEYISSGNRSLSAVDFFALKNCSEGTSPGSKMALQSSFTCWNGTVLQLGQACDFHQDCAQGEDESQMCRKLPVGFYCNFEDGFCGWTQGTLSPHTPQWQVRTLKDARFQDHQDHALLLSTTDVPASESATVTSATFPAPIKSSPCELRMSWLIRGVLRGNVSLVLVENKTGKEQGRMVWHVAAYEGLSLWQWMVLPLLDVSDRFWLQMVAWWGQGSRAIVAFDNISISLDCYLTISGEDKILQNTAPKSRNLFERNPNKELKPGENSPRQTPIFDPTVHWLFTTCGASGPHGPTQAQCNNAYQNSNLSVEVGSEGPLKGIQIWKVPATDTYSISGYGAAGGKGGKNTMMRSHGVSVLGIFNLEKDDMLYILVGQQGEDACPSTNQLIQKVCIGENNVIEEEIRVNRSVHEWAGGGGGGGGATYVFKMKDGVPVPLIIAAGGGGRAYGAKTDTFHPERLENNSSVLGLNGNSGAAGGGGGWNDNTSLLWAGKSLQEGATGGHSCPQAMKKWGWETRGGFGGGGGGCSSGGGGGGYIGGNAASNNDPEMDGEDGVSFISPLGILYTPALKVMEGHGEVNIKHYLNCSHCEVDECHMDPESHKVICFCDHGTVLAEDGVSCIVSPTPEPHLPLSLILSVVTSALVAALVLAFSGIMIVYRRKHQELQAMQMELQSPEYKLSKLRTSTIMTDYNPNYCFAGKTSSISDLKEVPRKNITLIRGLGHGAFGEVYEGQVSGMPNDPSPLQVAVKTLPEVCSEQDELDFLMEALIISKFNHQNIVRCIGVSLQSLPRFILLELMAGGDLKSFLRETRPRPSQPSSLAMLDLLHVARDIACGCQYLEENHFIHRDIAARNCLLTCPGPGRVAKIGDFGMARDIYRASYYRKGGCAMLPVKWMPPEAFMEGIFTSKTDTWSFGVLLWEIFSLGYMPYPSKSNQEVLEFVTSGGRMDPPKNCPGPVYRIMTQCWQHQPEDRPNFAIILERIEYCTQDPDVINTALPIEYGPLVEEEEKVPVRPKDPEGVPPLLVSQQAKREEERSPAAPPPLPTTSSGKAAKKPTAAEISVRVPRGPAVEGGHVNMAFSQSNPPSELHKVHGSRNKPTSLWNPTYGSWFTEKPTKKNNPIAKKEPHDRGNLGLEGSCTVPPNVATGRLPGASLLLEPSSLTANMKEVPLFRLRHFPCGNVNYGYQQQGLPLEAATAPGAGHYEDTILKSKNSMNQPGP
# [24] = target: Fibroblast growth factor receptor 2 (Homo sapiens, UniProt P21802); assay: Inhibition of FGFR2 (unknown origin)
# NIH3T3 [25] = assay: Antiproliferative activity against […] NIH3T3 cells expressing MPRIP-NTRK1 assessed as cell growth inhibition incubated for 4 to 7 days by CellTiter-Glo Luminescent Cell Viability Assay; type: functional, cell-based; details: Mus musculus
# [26] = Cmax in Wistar Hannover rat at 1 mg/kg, po by LC-MS analysis; type: ADME, organism-based; set-up: dose 1 mg/kg, route po; details: in vivo
# [27] = target: Cyclin-dependent kinase 1 (Homo sapiens, UniProt P06493); assay: Inhibition of CDK1 (unknown origin)
# Cyclin-dependent kinase 1, sequence (P06493 whole entry): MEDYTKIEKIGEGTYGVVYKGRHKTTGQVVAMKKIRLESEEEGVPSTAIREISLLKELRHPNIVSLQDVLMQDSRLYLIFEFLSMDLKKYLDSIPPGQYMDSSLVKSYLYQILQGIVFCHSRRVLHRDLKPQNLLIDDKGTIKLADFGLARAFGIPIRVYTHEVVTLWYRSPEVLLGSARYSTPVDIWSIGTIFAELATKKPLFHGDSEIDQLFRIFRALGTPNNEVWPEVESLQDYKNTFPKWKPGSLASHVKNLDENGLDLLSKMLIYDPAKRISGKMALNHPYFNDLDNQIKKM
# [28] = target: RAF proto-oncogene serine/threonine-protein kinase (Homo sapiens, UniProt P04049); assay: Inhibition of RAF1 (unknown origin)
# NIH3T3 [29] = assay: Antitumor activity against mouse NIH3T3 cells implanted in mouse assessed as tumor regression at 10 mg/kg, po administered once daily for 11 days and measured on day 12 relative to control; type: functional; details: time 12 day
# [30] = target: Hepatocyte growth factor receptor (Homo sapiens, UniProt P08581); assay: Inhibition of MET (unknown origin)
# [31] = target: cAMP-dependent protein kinase (PKA) (Homo sapiens, UniProt P22694+P17612+P22612); assay: Inhibition of PKA (unknown origin); type: protein assay
# [32] = target: High affinity nerve growth factor receptor (Homo sapiens, UniProt P04629); assay: Inhibition of TRKA (unknown origin)
# [33] = target: Epidermal growth factor receptor (Homo sapiens, UniProt P00533); assay: Inhibition of EGFR (unknown origin)
# [34] = target: Vascular endothelial growth factor receptor 2 (Homo sapiens, UniProt P35968); assay: Inhibition of KDR (unknown origin)
# [35] = Half life in Wistar Hannover rat at 1 mg/kg, po by LC-MS analysis; type: ADME, organism-based; details: in vivo
# [36] = Cmax in Beagle dog at 1 mg/kg, po by LC-MS analysis; type: ADME, organism-based, Canis lupus familiaris; set-up: dose 1 mg/kg, route po; details: in vivo
# [37] = target: Serine/threonine-protein kinase Chk1 (Homo sapiens, UniProt O14757); assay: Inhibition of CHK1 (unknown origin)
# Serine/threonine-protein kinase Chk1, sequence (O14757 whole entry): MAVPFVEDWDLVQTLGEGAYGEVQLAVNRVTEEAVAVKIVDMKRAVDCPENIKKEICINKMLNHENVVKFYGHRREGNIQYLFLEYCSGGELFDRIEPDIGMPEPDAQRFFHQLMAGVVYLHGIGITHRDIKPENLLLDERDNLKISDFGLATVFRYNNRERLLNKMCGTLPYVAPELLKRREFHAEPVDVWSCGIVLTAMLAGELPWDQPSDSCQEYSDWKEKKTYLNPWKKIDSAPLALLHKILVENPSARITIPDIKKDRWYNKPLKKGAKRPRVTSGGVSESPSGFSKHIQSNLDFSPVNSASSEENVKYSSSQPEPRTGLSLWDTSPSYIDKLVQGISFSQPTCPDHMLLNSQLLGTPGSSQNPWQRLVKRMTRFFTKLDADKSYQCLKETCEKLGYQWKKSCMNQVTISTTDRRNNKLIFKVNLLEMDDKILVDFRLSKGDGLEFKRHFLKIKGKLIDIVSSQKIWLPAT
# [38] = Half life in Wistar Hannover rat at 1 mg/kg, iv by LC-MS analysis; type: ADME, organism-based; details: in vivo
# NIH3T3 [39] = assay: Antitumor activity against mouse NIH3T3 cells implanted in mouse assessed as tumor growth inhibition at 0.63 mg/kg, po administered once daily for 11 days and measured on day 12 relative to control; type: functional; details: NIH3T3, 288 h, time 12 day, read-out: TGI
# [40] = target: NT-3 growth factor receptor (Homo sapiens, UniProt Q16288); assay: Inhibition of TRKC (unknown origin)
# [41] = Toxicity in mouse assessed as body weight loss at 10 mg/kg, po administered once daily for 11 days and measured on day 12; type: organism-based; details: in vivo, 288 h, time 12 day
compound,measurement,setting,value
Cc1cc(C(=O)NC(C)(C)C)cc(C#Cc2ccc3c4c(oc3c2)C(C)(C)c2cc(NS(C)(=O)=O)ccc2C4=O)n1,inhibition in vivo at 10 mg/kg,[1],171%
same,IC50,[2],> 10 µM
same,IC50,[3],0.002 µM
same,inhibition in vivo at 10 mg/kg,NIH3T3 [4],105%
same,"fold induction at 1 h, 1 µM",CYP3A4,3
same,Vd,[5],1.69 L/kg
same,IC50,[6],> 10 µM
same,half-life,[7],12.7 h
same,IC50,Insulin receptor,> 10 µM
same,AUC,[8],5950 ng·h/mL
same,AUC,[9],11000 ng·h/mL
same,clearance,[10],1.07 mL/min/kg
same,IC50,[11],> 10 µM
same,IC50,[12],0.3 µM
same,half-life,[13],15.2 h
same,IC50,[14],> 10 µM
same,Vd,[15],0.587 L/kg
same,inhibition in vivo at 2.5 mg/kg,NIH3T3 [16],102%
same,Activity,NIH3T3 [17],26%
same,bioavailability,[18],38%
same,bioavailability,[19],97.5%
same,clearance,[20],1.48 mL/min/kg
same,inhibition in vivo at 0.16 mg/kg,NIH3T3 [21],14%
same,IC50,[22],> 10 µM
same,IC50,[23],> 10 µM
same,IC50,[24],> 10 µM
same,IC50,NIH3T3 [25],0.0084 µM
same,Cmax,[26],581 ng/mL
same,IC50,[27],> 10 µM
same,IC50,[28],> 10 µM
same,Activity,NIH3T3 [29],72%
same,IC50,[30],> 10 µM
same,IC50,[31],> 10 µM
same,IC50,[32],0.0012 µM
same,IC50,[33],> 10 µM
same,IC50,[34],> 1 µM
same,half-life,[35],9.01 h
same,Cmax,[36],763 ng/mL
same,IC50,[37],> 10 µM
same,half-life,[38],7.49 h
same,inhibition in vivo at 0.63 mg/kg,NIH3T3 [39],16%
same,IC50,[40],0.0028 µM
same,Activity,[41],Non-Toxic
